# Legend:
# [1] = tested on: Staphylococcus aureus; experiment: Minimum inhibitory concentration / antimicrobial activity against Staphylococcus aureus in vitro; format: cell-based; settings: for minimum inhibitory concentration (MIC): Staphylococcus aureus
# [2] = tested on: C. acnes DSM1897; experiment: Growth of C. acnes DSM1897 in microtiter plates (OD600, anaerobic, 5 days); format: cell-based, Cutibacterium acnes (Propionibacterium acnes)
# Protocol: The effect of the preparations according to the invention on the growth of C. acnes, S. aureus and S. epidermidis was investigated in in vitro studies.
# C. acnes DSM1897 was incubated under anaerobic conditions at 37 °C. The overnight culture was diluted 1:1000 in Caso medium (casein peptone 17 g/l; soybean meal peptone 3 g/l; sodium chloride 5 g/l; glucose 2.5 g/l; dipotassium hydrogen phosphate 2.5 g/l; pH 7.3±0.2) and seeded in microtiter plates. Different concentrations of the plant extract Glycyrrhiza inflata and licochalcone A (1 μg/ml, 2 μg/ml) were added, mixed and incubated anaerobically at 37 °C for 5 days. […] The optical density (OD) was measured photometrically at a wavelength of 600 nm (OD600) to estimate the growth of the bacteria. […]
# Unless otherwise stated, the quantities refer to the weight of the compound per volume of medium, e.g. 1 μg/ml means 1 μg licochalcone A in 1 ml medium. The percentage quantities of ISW1-2 refer to the weight of ISW1-2 in relation to the total weight of the respective test preparation.
# C. acnes 1897 was incubated without ISW1-2 (FIG. 1 shaded) and with a non-inhibitory concentration of 0.00001% ISW1-2 (FIG. 1 black), wherein different concentrations of licochalcone A Extract (0 μg/ml=control; 1 μg/ml; 2 μg/ml) were added. Bacterial growth or inhibition is measured by the increase/reduction of turbidity in the medium (OD600). […]
# [3] = tested on: S. aureus DSM20231; experiment: Growth of S. aureus DSM20231 in microtiter plates (OD600, aerobic, 24 h); format: cell-based, Staphylococcus aureus; settings: for synergistic effect with ISW1-2 on S. aureus growth: with 0.00002% ISW1-2, FIGS. 3 to 10
# Protocol: (§1) S. aureus DSM20231 and S. epidermidis ATTC12228 were incubated under aerobic conditions at 37 °C with constant shaking. The overnight cultures were diluted 1:10000 in MHB (Müller Hinton Broth: starch 1.5 g/l; meat infusion 2.0 g/l; peptone from casein (hydrolyzed) 17.5 g/l; pH: 7.4±0.2) and seeded in microtiter plates. […] These experiments were repeated in the presence of a non-inhibitory ISW1-2 concentration (0.00002% ISW1-2). To estimate bacterial growth, the optical density (OD) was measured photometrically at a wavelength of 600 nm (OD600). Increasing values indicate bacterial growth (mean value from three independent experiments).
# Staphylococcus aureus DSM20231 was incubated without ISW1-2 (FIGS. 3, 5, 7, 9) and with a non-inhibitory concentration of 0.00002% ISW1-2 (FIGS. 4, 6, 8, 10), wherein different concentrations of licochalcone Extract; licochalcone A; licochalcone C and licochalcone E (0 μg/ml=control; 1 μg/ml; 2 μg/ml) were present. FIGS. 3 to 10 show the bacterial growth over 24 hours under the different conditions (mean values from three independent experiments).
# (§2) Bacterial growth is measured by the increase in turbidity in the medium (OD600), i.e. an increase in OD over time indicates bacterial growth.
# FIGS. 7 and 8 show the studies with ISW1-2 and licochalcone C. Four different amounts of licochalcone C were used (0%, control; 1 μg/ml; 2 μg/ml and 4 μg/ml), alone (FIG. 7) and with 0.00002% ISW1-2 (FIG. 8).
# FIGS. 9 and 10 show the studies with ISW1-2 and licochalcone E. Three different amounts of licochalcone E were used (0%, control; 1 μg/ml; 2 μg/ml), alone (FIG. 9) and with 0.00002% ISW1-2 (FIG. 10).
# [4] = tested on: S. epidermidis ATTC12228; experiment: Growth of S. epidermidis 12228 in microtiter plates (OD600, aerobic, 24 h); format: cell-based, Staphylococcus epidermidis; settings: for effect on growth of S. epidermidis (OD600): 1 μg/ml, 2 μg/ml, without ISW1-2, 24 h, FIGS. 11, 13, 15, 17
# Protocol: as §1
# In further comparative studies, the influence of the combination of compounds according to the invention was also determined on skin commensal germs, such as S. epidermidis (FIGS. 11 to 18).
# For this purpose, Staphylococcus epidermidis 12228 was incubated without ISW1-2 (FIGS. 11, 13, 15, 17) and with a non-inhibitory concentration of 0.00002% ISW1-2 (FIGS. 12, 14, 16, 18), wherein different concentrations of licochalcone extract; licochalcone A; licochalcone C and licochalcone E (0 μg/ml=control; 1 μg/ml; 2 μg/ml) were present. The bacterial growth over 24 h under the different conditions is shown (mean values from three independent experiments).
# as §2
# [5] = tested on: membrane potential of the bacteria
# [6] = tested on: innate immune response of the skin; settings: in synergy with factors originating from the host and microbiome; cited from earlier work
smiles,measurement,setting,value
"CC(C)C[C@H]1NC(=O)[C@H](Cc2c[nH]c3ccccc23)NC(=O)[C@@H](C(C)C)NC(=O)[C@H]2NC(SC2(C)C)[C@H](C(C)C)NC(=O)[C@@H](Cc2c[nH]c3ccccc23)NC(=O)[C@H](C(C)C)NC1=O [ISW1-2, cyclo [N-DVal-LTrp-DLeu-LVal-DTrp-LMe2Thz(LVal)-C]]",sensitivity of skin pathogens such as Staphylococcus aureus,[1],particularly sensitive
same,minimum inhibitory concentration (MIC),[1],3.1 µg/mL
same,minimum inhibitory concentration (MIC),[1]; 3.1 μg/ml expressed in %,0.00031%
same,growth inhibition of C. acnes (OD600),"[2]; 0.00001% ISW1-2 alone, anaerobic, 37 °C, 5 days",non-inhibitory
same,growth inhibition of S. aureus (OD600),"[3]; 0.00002% ISW1-2 alone, 37 °C, 24 h",non-inhibitory
same,growth inhibition of S. epidermidis (OD600),"[4]; 0.00002% ISW1-2 alone, 24 h",non-inhibitory
same,mechanism of action,[5]; antibacterial effect,based on proton translocation while maintaining membrane integrity
same,correlation of antibacterial effect with membrane potential drop,[5]; bacteria,correlates strongly with the drop of the membrane potential of the bacteria
same,effect on innate immune response of the skin,[6],supports the innate immune response of the skin
C=CC(C)(C)c1cc(/C=C/C(=O)c2ccc(O)cc2)c(OC)cc1O [licochalcone A],growth inhibition of C. acnes (OD600),"[2]; pure extract or pure licochalcone A without ISW1-2, FIGS. 1 and 2",only a minor inhibitory effect
same,effect on growth of S. epidermidis (OD600),[4],No influence on the growth of S. epidermidis was observed
COc1c(/C=C/C(=O)c2ccc(O)cc2)ccc(O)c1CC=C(C)C [licochalcone C],synergistic effect with ISW1-2 on S. aureus growth,[3],somewhat less synergistically with ISW1-2 than licochalcone A
same,effect on growth of S. epidermidis (OD600),[4],No influence on the growth of S. epidermidis was observed
C=C(C)[C@@H](C)c1cc(/C=C/C(=O)c2ccc(O)cc2)c(OC)cc1O [licochalcone E],synergistic effect with ISW1-2 on S. aureus growth,[3],"better synergistic effect with ISW1-2, similar to licochalcone A"
same,effect on growth of S. epidermidis (OD600),[4],No influence on the growth of S. epidermidis was observed
